According to patent publication US20070167631A1, “Novel herbicides” (priority 2003, published 2007):

Key:
Assay type in all cases: in vivo
[1] = system: Stellaria; assay: Microscreen, post-emergence herbicidal action (Example B3); details: 250 g/ha, evaluated after 9 or 13 days, scale of eleven ratings (10=total damage, 0=no action)
Experimental: (§1) Example B3 Microscreen, Post-Emergence Herbicidal Action Monocotyledonous and dicotyledonous test plants are sown in sterilised standard soil in seed trays each having 96 cells. After 8 to 9 days' cultivation under controlled conditions in a climatic chamber (cultivation at 17/23° C.; 13 hours' light; 50-60% humidity; after application at 19/24° C.), the plants are treated with an aqueous spray solution of 1000 mg/l of the active ingredient used ([…]; incl. 10% DMSO as solvent). The plants are grown on in the climatic chamber until the test is evaluated after 9 or 13 days. The test is evaluated in accordance with a scale of eleven ratings (10=total damage, 0=no action). Ratings of from 10 to 7 (especially from 10 to 8) indicate very good to good herbicidal action.

[2] = system: Digitaria; assay: as above; details: 250 g/ha, evaluated after 9 or 13 days, scale of eleven ratings (10=total damage, 0=no action)
Experimental: as §1

[3] = system: Nasturtium; assay: as above; details: 250 g/ha, evaluated after 9 or 13 days, scale of eleven ratings (10=total damage, 0=no action)
Experimental: (§2) Example B3 Microscreen, Post-Emergence Herbicidal Action Monocotyledonous and dicotyledonous test plants are sown in sterilised standard soil in seed trays each having 96 cells. […] The plants are grown on in the climatic chamber until the test is evaluated after 9 or 13 days. The test is evaluated in accordance with a scale of eleven ratings (10=total damage, 0=no action). Ratings of from 10 to 7 (especially from 10 to 8) indicate very good to good herbicidal action.

[4] = system: Solanum; assay: as above; details: 250 g/ha, evaluated after 9 or 13 days, scale of eleven ratings (10=total damage, 0=no action)
Experimental: as §2

[5] = system: Amaranthus; assay: as above; details: 250 g/ha, evaluated after 9 or 13 days, scale of eleven ratings (10=total damage, 0=no action)
Experimental: as §2

[6] = system: Stellaria; assay: Post-emergence herbicidal action (Example B2); details: 250 g/ha, after about 18 days, rating scale 10=total damage, 0=no action
From the text: (§3) Monocotyledonous and dicotyledonous test plants are cultivated in a greenhouse in standard soil in plastic pots and, at the 4- to 6-leaf stage, are sprayed with an aqueous suspension of the test compounds of formula I prepared from a 25% wettable powder (Example F3, b) according to WO 97/34485) or with an emulsion of the test compounds of formula I prepared from a 25% emulsifiable concentrate (Example F1, c) according to WO 97/34485), corresponding to concentrations of 125 and 250 g of active ingredient per hectare (500 litres of water per ha). The test plants are then grown on in the greenhouse under optimum conditions. After a test duration of about 18 days, the test is evaluated in accordance with a scale of eleven ratings (10=total damage, 0=no action). Ratings of from 10 to 7 (especially from 10 to 8) indicate very good to good herbicidal action.

[7] = system: Panicum; assay: Post-emergence herbicidal action (Example B2); details: 250 g/ha, after about 18 days, rating scale 10=total damage, 0=no action
From the text: as §3

[8] = system: Amaranthus; assay: Post-emergence herbicidal action (Example B2); details: 250 g/ha, after about 18 days, rating scale 10=total damage, 0=no action
From the text: as §3

[9] = system: Echinochloa; assay: Post-emergence herbicidal action (Example B2); details: 250 g/ha, after about 18 days, rating scale 10=total damage, 0=no action
From the text: as §3

[10] = system: Euphorbia; assay: Post-emergence herbicidal action (Example B2); details: 250 g/ha, after about 18 days, rating scale 10=total damage, 0=no action
From the text: as §3

[11] = system: Chenopodium; assay: Post-emergence herbicidal action (Example B2); details: 250 g/ha, after about 18 days, rating scale 10=total damage, 0=no action
From the text: as §3

[12] = system: Xanthium; assay: Post-emergence herbicidal action (Example B2); details: 250 g/ha, after about 18 days, rating scale 10=total damage, 0=no action
From the text: as §3

| Compound | Stellaria, herbicidal action rating [1] | Digitaria, herbicidal action rating [2] | Nasturtium, herbicidal action rating [3] | Solanum, herbicidal action rating [4] | Amaranthus, herbicidal action rating [5] | Post-emergence action: Stellaria [6] | Post-emergence action: Panicum [7] | Post-emergence action: Amaranthus [8] | Post-emergence action: Echinochloa [9] | Post-emergence action: Euphorbia [10] | Post-emergence action: Chenopodium [11] | Post-emergence action: Xanthium [12] |
| --- | --- | --- | --- | --- | --- | --- | --- | --- | --- | --- | --- | --- |
| CC(C)=NOCCOc1nc(C(=O)C2=C(O)C(C)(C)C(=O)C(C)(C)C2=O)ccc1C(F)(F)F [Compound 2.010] | 8 | 3 | 9 | 9 | 8 |  |  |  |  |  |  |  |
| COCCNc1nc(C(=O)C2=C(O)C(C)(C)C(=O)C(C)(C)C2=O)ccc1C(F)(F)F [Compound 2.064] | 10 | 9 | 10 | 10 | 8 |  |  |  |  |  |  |  |
| C=C(OCC)c1nc(C(=O)C2=C(O)CCCC2=O)ccc1C(F)(F)F [Compound 1.189] | 8 | 7 | 9 | 9 |  |  |  |  |  |  |  |  |
| CC1CN(c2nc(C(=O)C3=C(O)C(C)(C)C(=O)C(C)(C)C3=O)ccc2C(F)(F)F)CC(C)O1 (stereo not shown) [Compound 2.075] | 9 | 7 | 10 | 10 | 6 |  |  |  |  |  |  |  |
| CCN(CC)c1nc(C(=O)C2=C(O)CCCC2=O)ccc1C(F)(F)F [Compound 1.060] | 7 | 4 | 9 | 8 | 8 |  |  |  |  |  |  |  |
| CC1=NOC(c2nc(C(=O)C3=C(O)C(C)(C)C(=O)C(C)(C)C3=O)ccc2C(F)(F)F)C1 (stereo not shown) [Compound 2.201] |  |  |  |  |  | 6 | 9 | 9 | 8 | 6 | 8 | 8 |
| CCC(=O)N(C)c1nc(C(=O)C2=C(O)CCCC2=O)ccc1C(F)(F)F [Compound 1.090] |  |  |  |  |  | 6 | 8 | 8 | 7 |  | 9 | 8 |
| O=C1CCCC(O)=C1C(=O)c1ccc(C(F)(F)F)c(-n2ccc(C(F)(F)F)n2)n1 [Compound 1.081] |  |  |  |  |  | 6 | 10 | 10 | 9 | 9 | 9 | 9 |
| COCCOc1nc(C(=O)C2=C(O)CCCC2=O)ccc1C(F)(F)F [Compound 1.003] |  |  |  |  |  | 10 | 8 | 9 | 8 | 6 | 10 | 9 |
| CCOc1nc(C(=O)C2=C(O)C(C)(C)C(=O)C(C)(C)C2=O)ccc1C(F)(F)F [Compound 2.095] |  |  |  |  |  | 5 | 9 | 9 | 9 | 9 | 8 | 9 |
| O=C1CCCC(O)=C1C(=O)c1ccc(C(F)(F)F)c(-c2ccc(C(F)(F)F)cc2)n1 [Compound 1.209] | 9 | 8 | 9 | 9 | 9 |  |  |  |  |  |  |  |
| CN(C)c1nc(C(=O)C2=C(O)CCCC2=O)ccc1C(F)(F)F [Compound 1.059] | 9 | 7 | 9 | 9 | 7 |  |  |  |  |  |  |  |
| CC1=NOC(c2nc(C(=O)C3=C(O)CCCC3=O)ccc2C(F)(F)F)C1 (stereo not shown) [Compound 1.203] |  |  |  |  |  | 7 | 9 | 8 | 8 | 7 | 9 | 8 |
| CC1(C)C(=O)C(C(=O)c2ccc(C(F)(F)F)c(C#N)n2)=C(O)C(C)(C)C1=O [Compound 2.208] |  |  |  |  |  | 5 | 9 | 8 | 9 | 8 | 6 | 8 |
| CC1(C)OC(C)(C)C(O)=C(C(=O)c2ccc(C(F)(F)F)c(N3CCOCC3)n2)C1=O [Compound 3.076] |  |  |  |  |  | 7 | 7 | 7 | 7 | 6 | 9 | 8 |
| O=C1CCC2(CC2)C(O)=C1C(=O)c1ccc(C(F)(F)F)c(N2CCOCC2)n1 [Compound 3.068] |  |  |  |  |  | 9 | 10 | 10 | 9 | 9 | 9 | 9 |
| CC1(C)C(=O)C(C(=O)c2ccc(C(F)(F)F)c(-n3ccc(C(F)(F)F)n3)n2)=C(O)C(C)(C)C1=O [Compound 2.080] |  |  |  |  |  | 7 | 9 | 9 | 9 | 9 | 6 | 9 |
| N#CC1CC(=O)C(C(=O)c2ccc(C(F)(F)F)c(N3CCOCC3)n2)=C(O)C1 (stereo not shown) [Compound 3.212] |  |  |  |  |  | 7 | 0 | 8 | 5 | 7 | 7 | 8 |
| C=C(OCC)c1nc(C(=O)C2=C(O)C(C)(C)C(=O)C(C)(C)C2=O)ccc1C(F)(F)F [Compound 2.188] |  |  |  |  |  | 10 | 9 | 5 | 7 | 7 | 6 | 8 |
| COCCOc1nc(C(=O)C2=C(O)C(C)(C)C(=O)C(C)(C)C2=O)ccc1C(F)(F)F [Compound 2.003] |  |  |  |  |  | 9 | 9 | 8 | 9 | 9 | 8 | 8 |
| CC1(C)CC(C)(C)C(O)=C(C(=O)c2ccc(C(F)(F)F)c(N3CCOCC3)n2)C1=O [Compound 3.075] |  |  |  |  |  | 8 | 5 | 2 | 7 | 7 | 9 | 8 |
| COc1nc(C(=O)C2=C(O)C(C)(C)C(=O)C(C)(C)C2=O)ccc1C(F)(F)F [Compound 2.094] |  |  |  |  |  | 9 | 8 | 3 | 8 | 8 | 9 | 7 |
| O=C1CCCC(O)=C1C(=O)c1ccc(C(F)(F)F)c(OC2CCOC2)n1 (stereo not shown) [Compound 1.021] |  |  |  |  |  | 7 | 6 | 9 | 6 | 7 | 8 | 9 |
